In patent US10336739B2, “4-hydroxy-3-(heteroaryl)pyridine-2-one APJ agonists” (BRISTOL-MYERS SQUIBB COMPANY, priority 2015, dated 2019):
Like-named read-outs stand apart in the source and are kept apart here.

Molecular target: human APJ receptor (Homo sapiens (Human), UniProt P35414)
Test: Intracellular cAMP accumulation assay (APJ hcAMP, HTRF)
Assay type: cell-based
Settings: HEK293 cells stably expressing human APJ receptor, inhibition of forskolin-mediated cAMP production
Method in brief: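 HEK293 cells stably expressing human APJ, 5,000 per well, exposed to compound with […] IBMX and 2 μM forskolin for 30 minutes at room temperature. cAMP measured by HTRF after lysis and 60 min detection incubation. EC50 from sigmoidal variable-slope fits of inhibition of forskolin-induced cAMP, quantified against a cAMP standard curve.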

[1] = read-out: hAPJ cAMP EC50 Potency range
[2] = read-out: hAPJ cAMP EC50 (nM) Potency range
[3] = read-out: Human APJ cAMP EC50 Potency range

Chain of human APJ receptor (P35414 whole entry): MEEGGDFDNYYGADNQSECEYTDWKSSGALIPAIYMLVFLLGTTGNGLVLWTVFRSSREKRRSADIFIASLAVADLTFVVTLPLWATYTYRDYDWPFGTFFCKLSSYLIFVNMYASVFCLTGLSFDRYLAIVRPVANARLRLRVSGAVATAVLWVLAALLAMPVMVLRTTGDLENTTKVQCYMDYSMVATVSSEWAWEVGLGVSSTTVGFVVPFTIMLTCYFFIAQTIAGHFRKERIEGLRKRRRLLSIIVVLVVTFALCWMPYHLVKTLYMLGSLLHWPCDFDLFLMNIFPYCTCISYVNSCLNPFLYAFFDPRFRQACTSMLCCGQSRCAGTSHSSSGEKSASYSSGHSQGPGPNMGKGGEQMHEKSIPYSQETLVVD

SMILES	EC50 [1] [nM]	other results
CCOCc1nc(O)c(-c2nnc(Cc3ccc(Cl)cn3)o2)c(O)c1-c1c(O)cccc1O [Example 276, 3-{5-[(5-chloropyridin-2-yl)methyl]-1,3,4-oxadiazol-2-yl}-5-(2,6-dihydroxyphenyl)-6-(ethoxymethyl) pyridine-2,4-diol]		EC50 [2]: 10 to 100 nM
CCCCc1nc(O)c(-c2nnc(Cc3nnc(-c4ccc(Cl)cc4)o3)o2)c(O)c1-c1c(OC)cccc1OC [Example 205, 6-butyl-3-(5-{[5-(4-chlorophenyl)-1,3,4-oxadiazol-2-yl]methyl}-1,3,4-oxadiazol-2-yl)-5-(2,6-dimethoxyphenyl)pyridine-2,4-diol]		EC50 [3]: 10 to 100 nM
CCCCc1nc(O)c(-c2nnc(CC(=O)NCCc3ccc(Cl)cc3)o2)c(O)c1-c1c(OC)cccc1OC [Example 267, 2-{5-[6-butyl-5-(2,6-dimethoxyphenyl)-2,4-dihydroxy-pyridin-3-yl]-1,3,4-oxadiazol-2-yl}-N-[2-(4-chlorophenyl)ethyl]acetamide]		EC50 [2]: 0.01 to 10 nM
CCOCc1nc(O)c(-c2nnc(Cc3ncc(Cl)cc3F)o2)c(O)c1-c1c(OC)cccc1OC [Example 237, 3-{5-[(5-chloro-3-fluoropyridin-2-yl)methyl]-1,3,4-oxadiazol-2-yl}-5-(2,6-dimethoxyphenyl)-6-(ethoxymethyl) pyridine-2,4-diol]		EC50 [2]: 0.01 to 10 nM
CCCCc1nc(O)c(-c2nnc(CN3CCOC3=O)o2)c(O)c1-c1c(OC)cccc1OC [Example 116, 3-({5-[6-butyl-5-(2,6-dimethoxyphenyl)-2,4-dihydroxypyridin-3-yl]-1,3,4-oxadiazol-2-yl}methyl)-1,3-oxazolidin-2-one]		EC50 (hAPJ cAMP EC50 Potency range (nM)): 0.01 to 10 nM
CCOCc1nc(O)c(-c2nnc(Cc3ccc(Cl)cc3)s2)c(O)c1-c1c(OC)cccc1OC [Example 234, 3-{5-[(4-chlorophenyl)-methyl]-1,3,4-thiadiazol-2-yl}-5-(2,6-dimethoxyphenyl)-6-(ethoxymethyl)-pyridine-2,4-diol]		EC50 [2]: 10 to 100 nM
CCCCc1nc(O)c(-c2nnc(COc3ccccc3)o2)c(O)c1-c1c(OC)cccc1OC [Example 17, 6-butyl-5-(2,6-dimethoxyphenyl)-3-[5-(phenoxymethyl)-1,3,4-oxadiazol-2-yl]pyridine-2,4-diol]	10 to 100	
CCCCc1nc(O)c(-c2nnc(CC(=O)NCc3ncco3)o2)c(O)c1-c1c(OC)cccc1OC [Example 256, 2-{5-[6-butyl-5-(2,6-dimethoxyphenyl)-2,4-dihydroxypyridin-3-yl]-1,3,4-oxadiazol-2-yl}-N-[(1,3-oxazol-2-yl)methyl] acetamide]		EC50 [2]: 0.01 to 10 nM
CCCCc1nc(O)c(-c2nnc(Cc3noc4cccnc34)o2)c(O)c1-c1c(OC)cccc1OC [Example 227, 6-butyl-5-(2,6-dimethoxyphenyl)-3-(5-{[1,2]oxazolo[4,5-b]pyridin-3-ylmethyl}-1,3,4-oxadiazol-2-yl)pyridine-2,4-diol]		EC50 [3]: 0.01 to 10 nM
CCCCc1nc(O)c(-c2nnc(CCc3ccc(C(F)(F)F)cc3)o2)c(O)c1-c1c(OC)cccc1OC [Example 75, 6-butyl-5-(2,6-dimethoxyphenyl)-3-(5-{2-[4-(trifluoromethyl)phenyl]ethyl}-1,3,4-oxadiazol-2-yl)pyridine-2,4-diol]	10 to 100	
CCCCc1nc(O)c(-c2nnc(Cc3nnc(-c4cccnc4)o3)o2)c(O)c1-c1c(OC)cccc1OC [Example 211, 6-butyl-5-(2,6-dimethoxyphenyl)-3-(5-{[5-(pyridin-3-yl)-1,3,4-oxadiazol-2-yl]methyl}-1,3,4-oxadiazol-2-yl)pyridine-2,4-diol]	10 to 100	
CCCCc1nc(O)c(-c2nnc(CC(=O)NCc3cccnc3)o2)c(O)c1-c1c(OC)cccc1OC [Example 255, 2-{5-[6-butyl-5-(2,6-dimethoxyphenyl)-2,4-dihydroxy-pyridin-3-yl]-1,3,4-oxadiazol-2-yl}-N-[(pyridin-3-yl)methyl] acetamide]		EC50 [2]: 0.01 to 10 nM
CCCCc1nc(O)c(-c2nnc(Cc3cc(F)cc(C(F)(F)F)c3)o2)c(O)c1-c1c(OC)cccc1OC [Example 57, 6-butyl-5-(2,6-dimethoxyphenyl)-3-(5-{[3-fluoro-5-(trifluoromethyl)phenyl]methyl}-1,3,4-oxadiazol-2-yl)pyridine-2,4-diol]	10 to 100	

Second part, led by results:

EC50 [1] [nM]	SMILES	other results
0.01 to 10	CCCCc1nc(O)c(-c2nnc(CC(=O)N3CCNC(=O)C3)o2)c(O)c1-c1c(OC)cccc1OC [Example 184, 4-(2-{5-[6-butyl-5-(2,6-dimethoxyphenyl)-2,4-dihydroxypyridin-3-yl]-1,3,4-oxadiazol-2-yl}acetyl) piperazin-2-one]	
0.01 to 10	CCCCc1nc(O)c(-c2nnc(CC(=O)N3CCCCC3)o2)c(O)c1-c1c(OC)cccc1OC [Example 195, 2-{5-[6-butyl-5-(2,6-dimethoxyphenyl)-2,4-dihydroxypyridin-3-yl]-1,3,4-oxadiazol-2-yl}-1-(piperidin-1-yl)ethan-1-one]	
10 to 100	CCCCc1nc(O)c(-c2nnc(Cc3ccc(F)c(F)c3)o2)c(O)c1-c1cccc(OCc2ccccc2)c1 [Example 142, 5-[3-(benzyloxy)phenyl]-6-butyl-3-{5-[(3,4-difluorophenyl)methyl]-1,3,4-oxadiazol-2-yl}pyridine-2,4-diol]	
0.01 to 10	CCOCc1nc(O)c(-c2nnc(Cc3noc4cccnc34)o2)c(O)c1-c1c(OC)cccc1OC [Example 228, 5-(2,6-dimethoxyphenyl)-6-(ethoxymethyl)-3-(5-{[1,2]oxazolo[4,5-b]pyridin-3-ylmethyl}-1,3,4-oxadiazol-2-yl)pyridine-2,4-diol]	
10 to 100	CCCCc1nc(O)c(-c2nnc(CCc3ccccc3)o2)c(O)c1-c1c(OC)cccc1OC [Example 4, 6-butyl-5-(2,6-dimethoxyphenyl)-3-[5-(2-phenylethyl)-1,3,4-oxadiazol-2-yl]pyridine-2,4-diol]	
0.01 to 10	CCCCc1nc(O)c(-c2nnc(Cc3cc(C)no3)o2)c(O)c1-c1c(OC)cccc1OC [Example 51, 6-butyl-5-(2,6-dimethoxyphenyl)-3-{5-[(3-methyl-1,2-oxazol-5-yl)methyl]-1,3,4-oxadiazol-2-yl}pyridine-2,4-diol]	
0.01 to 10	CCCCc1[nH]c(=O)c(-c2nnc(Cc3csc(C)n3)o2)c(O)c1-c1cccc(C2CC2)c1 [Example 150, 6-butyl-5-(3-cyclopropylphenyl)-4-hydroxy-3-{5-[(2-methyl-1,3-thiazol-4-yl)methyl]-1,3,4-oxadiazol-2-yl}-1,2-dihydropyridin-2-one]	
0.01 to 10	CCCCc1nc(O)c(-c2nnc(Cc3nc4ccccc4o3)o2)c(O)c1-c1c(OC)cccc1OC [Example 25, 3-[5-(1,3-benzoxazol-2-ylmethyl)-1,3,4-oxadiazol-2-yl]-6-butyl-5-(2,6-dimethoxyphenyl) pyridine-2,4-diol]	
0.01 to 10	CCCCc1nc(O)c(-c2nnc(CC(=O)N3CCCC3)o2)c(O)c1-c1c(OC)cccc1OC [Example 194, 2-{5-[6-butyl-5-(2,6-dimethoxyphenyl)-2,4-dihydroxypyridin-3-yl]-1,3,4-oxadiazol-2-yl}-1-(pyrrolidin-1-yl)ethan-1-one]	
0.01 to 10	CCCCc1nc(O)c(-c2nnc(CN(C)C(=O)C(C)(C)C)o2)c(O)c1-c1c(OC)cccc1OC [Example 169, N-({5-[6-butyl-5-(2,6-dimethoxyphenyl)-2,4-dihydroxypyridin-3-yl]-1,3,4-oxadiazol-2-yl}methyl)-N,2,2-trimethyl-propanamide]	
0.01 to 10	CCCCc1nc(O)c(-c2nnc(Cc3cccc(Cl)c3)o2)c(O)c1-c1c(OC)cccc1OC [Example 23, 6-butyl-3-{5-[(3-chlorophenyl)methyl]-1,3,4-oxadiazol-2-yl}-5-(2,6-dimethoxyphenyl) pyridine-2,4-diol]	
0.01 to 10	CCCCc1nc(O)c(-c2nnc(CCc3nc(-c4ccccn4)no3)o2)c(O)c1-c1c(OC)cccc1OC [Example 83, 6-butyl-5-(2,6-dimethoxyphenyl)-3-(5-{2-[3-(pyridin-2-yl)-1,2,4-oxadiazol-5-yl]ethyl}-1,3,4-oxadiazol-2-yl)pyridine-2,4-diol]	
0.01 to 10	CCOCc1nc(O)c(-c2nnc(Cn3nnc4ccccc43)o2)c(O)c1-c1c(OC)cccc1OC [Example 133, 3-[5-(1H-1,2,3-benzotriazol-1-ylmethyl)-1,3,4-oxadiazol-2-yl]-5-(2,6-dimethoxyphenyl)-6-(ethoxymethyl) pyridine-2,4-diol]	
0.01 to 10	CCOCc1nc(O)c(-c2nnc(Cc3ccc(F)nc3)o2)c(O)c1-c1c(OC)cccc1OC [Example 131, 5-(2,6-dimethoxyphenyl)-6-(ethoxymethyl)-3-{5-[(6-fluoropyridin-3-yl)methyl]-1,3,4-oxadiazol-2-yl}pyridine-2,4-diol]	
0.01 to 10	CCCCc1nc(O)c(-c2nnc(CNC(C)=O)o2)c(O)c1-c1c(OC)cccc1OC [Example 175, N-({5-[6-butyl-5-(2,6-dimethoxyphenyl)-2,4-dihydroxypyridin-3-yl]-1,3,4-oxadiazol-2-yl}methyl) acetamide]	
0.01 to 10	CCCCc1nc(O)c(-c2nnc(Cc3ccc(F)c(OC)c3)o2)c(O)c1-c1c(OC)cccc1OC [Example 48, 6-butyl-5-(2,6-dimethoxyphenyl)-3-{5-[(4-fluoro-3-methoxyphenyl)methyl]-1,3,4-oxadiazol-2-yl}pyridine-2,4-diol]	
0.01 to 10	CCCCc1nc(O)c(-c2nnc(Cc3ccc(Cl)c(Cl)c3)o2)c(O)c1-c1c(OC)cccc1OC [Example 33, 6-butyl-3-{5-[(3,4-dichlorophenyl)methyl]-1,3,4-oxadiazol-2-yl}-5-(2,6-dimethoxyphenyl) pyridine-2,4-diol]	
0.01 to 10	CCCCc1nc(O)c(-c2nnc(CCc3nccn3C)o2)c(O)c1-c1c(OC)cccc1OC [Example 29, 6-butyl-5-(2,6-dimethoxyphenyl)-3-{5-[2-(1-methyl-1H-imidazol-2-yl)ethyl]-1,3,4-oxadiazol-2-yl}pyridine-2,4-diol]	
